Results: US10189841B2, “Purinones as ubiquitin-specific protease 1 inhibitors” (Forma Therapeutics, Inc., priority 2015, dated 2019)

molecular target: USP1 (construct USP1 (I-785, GG670, 671AA)/UAF1 (I-677)-Flag) (Homo sapiens (Human), UniProt O94782, G670A/G671A); experiment: Ubiquitin-Rhodamine 110 assay for USP1 activity; format: biochemical; details: USP1/UAF1 25 pM, Ub-Rh110 25 nM, 30 min preincubation
Summary of the method: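 Two formats with the USP1/UAF1 complex and 25 nM ubiquitin-rhodamine 110 in pH 8.0 Tris buffer with calcium, glutathione and detergent. Single-point screening used 10 µM, 100 pM enzyme and 45 min. Inhibition was set against no-enzyme and DMSO wells.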

Chain of USP1 (construct USP1 (I-785, GG670, 671AA)/UAF1 (I-677)-Flag) (O94782 whole entry G670A/G671A): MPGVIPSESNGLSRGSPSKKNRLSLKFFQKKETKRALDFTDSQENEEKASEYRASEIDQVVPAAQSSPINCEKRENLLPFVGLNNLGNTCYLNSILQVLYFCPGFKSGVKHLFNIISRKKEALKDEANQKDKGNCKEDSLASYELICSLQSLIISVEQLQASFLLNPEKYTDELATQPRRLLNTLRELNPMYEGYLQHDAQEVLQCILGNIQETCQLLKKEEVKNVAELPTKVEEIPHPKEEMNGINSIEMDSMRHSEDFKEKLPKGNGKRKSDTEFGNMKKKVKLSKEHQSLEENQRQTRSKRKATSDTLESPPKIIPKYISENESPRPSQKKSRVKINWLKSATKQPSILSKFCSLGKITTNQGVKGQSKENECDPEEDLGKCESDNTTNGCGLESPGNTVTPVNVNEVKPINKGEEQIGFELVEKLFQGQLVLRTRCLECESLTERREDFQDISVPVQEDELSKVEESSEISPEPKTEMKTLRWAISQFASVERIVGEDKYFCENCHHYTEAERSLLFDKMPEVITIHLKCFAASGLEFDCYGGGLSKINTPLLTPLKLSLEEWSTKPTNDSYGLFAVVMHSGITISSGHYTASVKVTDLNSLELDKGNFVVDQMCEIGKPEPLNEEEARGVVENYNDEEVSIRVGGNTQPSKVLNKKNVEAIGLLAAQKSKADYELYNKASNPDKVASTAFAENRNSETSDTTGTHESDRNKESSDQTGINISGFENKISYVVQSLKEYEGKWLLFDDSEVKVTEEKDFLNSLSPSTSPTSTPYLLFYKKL
Chain of USP1 (construct USP1 (I-785, GG670, 671AA)/UAF1 (I-677)-Flag) (Q8TAF3 whole entry partner): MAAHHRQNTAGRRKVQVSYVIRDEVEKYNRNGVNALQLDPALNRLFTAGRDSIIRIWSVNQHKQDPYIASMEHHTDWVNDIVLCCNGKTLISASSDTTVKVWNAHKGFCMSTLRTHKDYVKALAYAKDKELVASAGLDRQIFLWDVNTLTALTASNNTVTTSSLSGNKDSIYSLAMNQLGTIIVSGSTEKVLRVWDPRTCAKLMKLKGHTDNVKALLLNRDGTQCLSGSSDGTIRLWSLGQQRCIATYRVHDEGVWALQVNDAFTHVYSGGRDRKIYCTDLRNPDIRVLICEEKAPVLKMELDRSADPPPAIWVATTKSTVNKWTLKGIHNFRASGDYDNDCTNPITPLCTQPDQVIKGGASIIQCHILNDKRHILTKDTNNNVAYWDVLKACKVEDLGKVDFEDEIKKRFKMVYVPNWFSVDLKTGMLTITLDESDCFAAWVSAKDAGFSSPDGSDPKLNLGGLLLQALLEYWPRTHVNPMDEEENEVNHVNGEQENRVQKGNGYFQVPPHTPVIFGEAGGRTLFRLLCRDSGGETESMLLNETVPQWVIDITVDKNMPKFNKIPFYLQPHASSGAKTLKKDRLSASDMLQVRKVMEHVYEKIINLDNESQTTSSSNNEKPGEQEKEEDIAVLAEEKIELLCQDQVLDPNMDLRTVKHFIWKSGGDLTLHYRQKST

SMILES	IC50 [nM]
Cn1cc(C(F)(F)F)nc1-c1ccc(Cn2c(=O)n(C)c3cnc(-c4cccnc4C4CC4)nc32)cc1 [Compound I-71, 2-(2-cyclopropylpyridin-3-yl)-7-methyl-9-(4-(1-methyl-4-(trifluoromethyl)-1H-imidazol-2-yl)benzyl)-7,9-dihydro-8H-purin-8-one]	< 50
CC(C)c1ncccc1-c1ncc2[nH]c(=O)n(Cc3ccc(-c4nc(C(F)(F)F)cn4C4COC4)cc3)c2n1 [Compound I-32, 2-(2-isopropylpyridin-3-yl)-9-(4-(1-(oxetan-3-yl)-4-(trifluoromethyl)-1H-imidazol-2-yl)benzyl)-7,9-dihydro-8H-purin-8-one]	50 to 200
CC(C)c1ccccc1-c1ncc2c(n1)n(Cc1ccc(NS(=O)(=O)c3nccn3C)cc1)c(=O)n2C [Compound I-454, N-(4-((2-(2-isopropylphenyl)-7-methyl-8-oxo-7,8-dihydro-9H-purin-9-yl)methyl)phenyl)-1-methyl-1H-imidazole-2-sulfonamide]	200 to 2000
Cn1cc(C(F)(F)F)nc1-c1ccc(Cn2c(=O)[nH]c3cnc(-c4cccnc4OCC4CCOC4)nc32)cc1 (stereo not drawn) [Compound I-425, 9-(4-(1-methyl-4-(trifluoromethyl)-1H-imidazol-2-yl)benzyl)-2-(2-((tetrahydrofuran-3-yl)methoxy)pyridin-3-yl)-7,9-dihydro-8H-purin-8-one]	< 50
CC(C)c1ccccc1-c1ncc2[nH]c(=O)n(Cc3ccc(C(=O)N(C)CC(F)(F)F)cc3)c2n1 [Compound I-406, 4-((2-(2-isopropylphenyl)-8-oxo-7,8-dihydro-9H-purin-9-yl)methyl)-N-methyl-N-(2,2,2-trifluoroethyl)benzamide]	50 to 200
CC(C)c1ccccc1-c1ncc2c(n1)n(Cc1ccc(-n3cccn3)cc1)c(=O)n2C [Compound I-6, 9-(4-(1H-pyrazol-1-yl)benzyl)-2-(2-isopropylphenyl)-7-methyl-7,9-dihydro-8H-purin-8-one]	50 to 200
CC(C)c1ncccc1-c1ncc2c(n1)n(Cc1c(F)cc(-c3nc(C(F)(F)F)cn3C)cc1F)c(=O)n2C [Compound I-128, 9-(2,6-difluoro-4-(1-methyl-4-(trifluoromethyl)-1H-imidazol-2-yl)benzyl)-2-(2-isopropylpyridin-3-yl)-7-methyl-7,9-dihydro-8H-purin-8-one]	50 to 200
CC(=O)c1ccccc1-c1ncc2[nH]c(=O)n(Cc3ccc(-c4nc(C(F)(F)F)cn4C)cc3)c2n1 [Compound I-38, 2-(2-acetylphenyl)-9-(4-(1-methyl-4-(trifluoromethyl)-1H-imidazol-2-yl)benzyl)-7,9-dihydro-8H-purin-8-one]	< 50
CN(C)CCOc1ncccc1-c1ncc2[nH]c(=O)n(Cc3ccc(-c4nc(C(F)(F)F)cn4C)cc3)c2n1 [Compound I-429, 2-(2-(2-(dimethylamino)ethoxy)pyridin-3-yl)-9-(4-(1-methyl-4-(trifluoromethyl)-1H-imidazol-2-yl)benzyl)-7,9-dihydro-8H-purin-8-one]	200 to 2000
Cn1cc(C(F)(F)F)nc1-c1ccc(Cn2c(=O)[nH]c3cnc(-c4cccnc4N4CCOCC4)nc32)cc1 [Compound I-333, 9-(4-(1-methyl-4-(trifluoromethyl)-1H-imidazol-2-yl)benzyl)-2-(2-morpholinopyridin-3-yl)-7,9-dihydro-8H-purin-8-one]	50 to 200
CC(C)c1ccccc1-c1ncc2[nH]c(=O)n(Cc3ccc(-c4ncc(C5CCN(C)CC5)n4C)cc3)c2n1 [Compound I-446, 2-(2-isopropylphenyl)-9-(4-(1-methyl-5-(1-methylpiperidin-4-yl)-1H-imidazol-2-yl)benzyl)-7,9-dihydro-8H-purin-8-one]	< 50
CC(C)c1ccccc1-c1ncc2c(n1)n(Cc1ccc(OC3CCOCC3)cc1)c(=O)n2C [Compound I-238, 2-(2-isopropylphenyl)-7-methyl-9-(4-((tetrahydro-2H-pyran-4-yl)oxy)benzyl)-7,9-dihydro-8H-purin-8-one]	200 to 2000
Cn1cc(C(F)(F)F)nc1-c1ccc(Cn2c(=O)[nH]c3cnc(-c4cccnc4OC4CCC4)nc32)cc1 [Compound I-419, 2-(2-cyclobutoxypyridin-3-yl)-9-(4-(1-methyl-4-(trifluoromethyl)-1H-imidazol-2-yl)benzyl)-7,9-dihydro-8H-purin-8-one]	< 50
CC(=O)N1CCC(c2ccn(-c3ccc(Cn4c(=O)[nH]c5cnc(-c6c(F)cccc6C(C)C)nc54)cc3)n2)CC1 [Compound I-474, 9-(4-(3-(1-acetylpiperidin-4-yl)-1H-pyrazol-1-yl)benzyl)-2-(2-fluoro-6-isopropylphenyl)-7,9-dihydro-8H-purin-8-one]	< 50
CC(C)c1ccccc1-c1ncc2[nH]c(=O)n(Cc3ccc(-c4ncccn4)cc3)c2n1 [Compound I-255, 2-(2-isopropylphenyl)-9-(4-(pyrimidin-2-yl)benzyl)-7,9-dihydro-8H-purin-8-one]	50 to 200
Cc1cn2ccnc2c(-c2ccc(Cn3c(=O)[nH]c4cnc(-c5ccccc5C(C)C)nc43)cc2)n1 [Compound I-306, 2-(2-isopropylphenyl)-9-(4-(6-methylimidazo[1,2-a]pyrazin-8-yl)benzyl)-7,9-dihydro-8H-purin-8-one]	< 50
CC(C)c1ccccc1-c1ncc2c(n1)n(Cc1ccc(-c3cnnn3C)cc1)c(=O)n2C [Compound I-285, 2-(2-isopropylphenyl)-7-methyl-9-(4-(1-methyl-1H-1,2,3-triazol-5-yl)benzyl)-7,9-dihydro-8H-purin-8-one]	200 to 2000
Cc1cc(C)n([C@H]2CC[C@H](Cn3c(=O)[nH]c4cnc(-c5ccccc5C(C)C)nc43)CC2)n1 [Compound I-213, 9-(((1r,4r)-4-(3,5-dimethyl-1H-pyrazol-1-yl)cyclohexyl)methyl)-2-(2-isopropylphenyl)-7,9-dihydro-8H-purin-8-one]	200 to 2000
Cn1cc(C(F)(F)F)nc1-c1ccc(Cn2c(=O)[nH]c3cnc(-c4cccnc4N4CCCC4)nc32)cc1 [Compound I-325, 9-(4-(1-methyl-4-(trifluoromethyl)-1H-imidazol-2-yl)benzyl)-2-(2-(pyrrolidin-1-yl)pyridin-3-yl)-7,9-dihydro-8H-purin-8-one]	< 50
CC(C)c1ccccc1-c1ncc2c(n1)n(Cc1ccc(-c3nccn3C)cc1)c(=O)n2C [Compound I-257, 2-(2-isopropylphenyl)-7-methyl-9-(4-(1-methyl-1H-imidazol-2-yl)benzyl)-7,9-dihydro-8H-purin-8-one]	< 50
CN(C)C(=O)CNc1ncccc1-c1ncc2[nH]c(=O)n(Cc3ccc(-c4nc(C(F)(F)F)cn4C)cc3)c2n1 [Compound I-318, N,N-dimethyl-2-((3-(9-(4-(1-methyl-4-(trifluoromethyl)-1H-imidazol-2-yl)benzyl)-8-oxo-8,9-dihydro-7H-purin-2-yl)pyridin-2-yl)amino)acetamide]	200 to 2000
CC(C)c1ccccc1-c1ncc2[nH]c(=O)n(Cc3ccc(-n4nc(C#N)cc4C#N)cc3)c2n1 [Compound I-199, 1-(4-((2-(2-isopropylphenyl)-8-oxo-7,8-dihydro-9H-purin-9-yl)methyl)phenyl)-1H-pyrazole-3,5-dicarbonitrile]	< 50
CC(C)c1ncccc1-c1ncc2c(n1)n([C@@H](C)c1ccc(-c3nc(C(F)(F)F)cn3C)cc1)c(=O)n2C [Compound I-116, (S)-2-(2-isopropylpyridin-3-yl)-7-methyl-9-(1-(4-(1-methyl-4-(trifluoromethyl)-1H-imidazol-2-yl)phenyl)ethyl)-7,9-dihydro-8H-purin-8-one]	< 50
CC(C)c1ccccc1-c1nc(N(C)C)c2[nH]c(=O)n(Cc3ccc(-c4nc(C(F)(F)F)cn4C)cc3)c2n1 [Compound I-533, 6-(Dimethylamino)-2-(2-isopropylphenyl)-9-(4-(1-methyl-4-(trifluoromethyl)-1H-imidazol-2-yl)benzyl)-7,9-dihydro-8H-purin-8-one]	< 50
COCC1CCCCN1C(=O)c1ccc(Cn2c(=O)[nH]c3cnc(-c4ccccc4C(C)C)nc32)cc1 (stereo not drawn) [Compound I-400, 2-(2-isopropylphenyl)-9-(4-(2-(methoxymethyl)piperidine-1-carbonyl)benzyl)-7,9-dihydro-8H-purin-8-one]	50 to 200
CC(C)c1ccccc1-c1ncc2[nH]c(=O)n(Cc3ccc(C(=O)N4CCCC45COC5)cc3)c2n1 [Compound I-411, 9-(4-(2-oxa-5-azaspiro[3.4]octane-5-carbonyl)benzyl)-2-(2-isopropylphenyl)-7,9-dihydro-8H-purin-8-one]	< 50
CC(C)c1ccccc1-c1ncc2[nH]c(=O)n(Cc3ccc(-n4cc(CN(C)C)nn4)cc3)c2n1 [Compound I-339, 9-(4-(4-((dimethylamino)methyl)-1H-1,2,3-triazol-1-yl)benzyl)-2-(2-isopropylphenyl)-7,9-dihydro-8H-purin-8-one]	> 2000
Cn1cc(C(F)(F)F)nc1-c1ccc(Cn2c(=O)[nH]c3cnc(-c4cccnc4N4CCC(C(F)(F)F)CC4)nc32)cc1 [Compound I-329, 9-(4-(1-methyl-4-(trifluoromethyl)-1H-imidazol-2-yl)benzyl)-2-(2-(4-(trifluoromethyl)piperidin-1-yl)pyridin-3-yl)-7,9-dihydro-8H-purin-8-one]	< 50
Cc1nc(-c2ccc(Cn3c(=O)[nH]c4cnc(-c5ccccc5C(C)C)nc43)cc2)n(C)n1 [Compound I-296, 9-(4-(1,3-dimethyl-1H-1,2,4-triazol-5-yl)benzyl)-2-(2-isopropylphenyl)-7,9-dihydro-8H-purin-8-one]	< 50
CC(C)c1ccccc1-c1ncc2[nH]c(=O)n(Cc3ccc(C(=O)N4CCN(C)CC4)cc3)c2n1 [Compound I-410, 2-(2-isopropylphenyl)-9-(4-(4-methylpiperazine-1-carbonyl)benzyl)-7,9-dihydro-8H-purin-8-one]	> 2000
